Like-named read-outs stand apart in the source and are kept apart here.
Key:
Cathepsin K = target: T1, Cathepsin K (Homo sapiens, UniProt P43235); assay: Cathepsin K inhibitory activity; format: biochemical
T1 sequence (P43235 115-329): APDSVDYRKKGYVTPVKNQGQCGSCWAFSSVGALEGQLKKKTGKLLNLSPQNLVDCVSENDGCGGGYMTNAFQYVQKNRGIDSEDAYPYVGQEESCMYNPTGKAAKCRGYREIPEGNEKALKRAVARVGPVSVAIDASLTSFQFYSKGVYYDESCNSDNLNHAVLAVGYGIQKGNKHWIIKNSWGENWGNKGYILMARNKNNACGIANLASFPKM

HCT116 (p53 +/+) cells = assay: cells; format: cell-based, human; conditions: read-out: IC50 (μM) ± SD HCT116 (p53 +/+)
Procedure: (§1) Compounds were tested at six concentrations (0.001–100 μM).
(§2) The cells were seeded into a 96-well plate and incubated at 37°C in 5% CO2 for 24 h, after which the test compounds were added to the culture medium and the cells were incubated for 48 h. 20 μL fresh MTT was added to each well, and the cells were incubated at 37°C in 5% CO2 for 4 h. After removing the culture medium, 150 μL DMSO was added to dissolve the formazan crystals. The absorbance at 540 nm was measured using a microplate reader. The results, expressed as IC50 values, were the average of three determinations and were calculated using nonlinear regression analysis.

HCT116 (p53 -/-) cells = assay: cells; format: cell-based, human; conditions: read-out: IC50 (μM) ± SD HCT116 (p53 -/-)
Procedure: as §1, §2

MCF7 (p53 +/+) cells = assay: cells; format: cell-based, human; conditions: read-out: IC50 (μM) ± SD MCF7 (p53 +/+)
Procedure: as §1, §2

MDM2 = MDM2 (Homo sapiens, UniProt Q00987); assay: MDM2 binding assay (fluorescence polarization); conditions: for Inhibition (200 μM, %): 200 μM compound; for inhibition at 200 µM: read-out: Inhibition (200 μM, %), 200 μM compound
Procedure: The MDM2 binding tests of all 17 compounds were carried out by a fluorescence polarization assay.
30 nM preincubated (30 min) MDM2 and 10 nM PMDM-F peptide in reaction buffer (100 μL, potassium phosphate, 100 mM; bovine gamma globulin, […]; sodium azide, 0.02%) were added into a 96-well plate containing tested compounds at pH 7.5. […] The Ki values were calculated according to a reported method.

MCF7 (p53 -/-) cells = assay: cells; format: cell-based; conditions: Homo sapiens, read-out: IC50 (μM) ± SD MCF7 (p53 -/-)
Procedure: as §1, §2

human MDM2 = conditions: training set, cited from earlier work; for IC50: ref 24 (TS-1), 25 (TS-2), 12 (TS-3), 26 (TS-4), 8 (TS-6), 28 (TS-7), read-out: Potency human MDM2 (nM), IC50
[1] = Homo sapiens, HCT-116, MTT, 48 h

Sequence of MDM2 (Q00987 whole entry): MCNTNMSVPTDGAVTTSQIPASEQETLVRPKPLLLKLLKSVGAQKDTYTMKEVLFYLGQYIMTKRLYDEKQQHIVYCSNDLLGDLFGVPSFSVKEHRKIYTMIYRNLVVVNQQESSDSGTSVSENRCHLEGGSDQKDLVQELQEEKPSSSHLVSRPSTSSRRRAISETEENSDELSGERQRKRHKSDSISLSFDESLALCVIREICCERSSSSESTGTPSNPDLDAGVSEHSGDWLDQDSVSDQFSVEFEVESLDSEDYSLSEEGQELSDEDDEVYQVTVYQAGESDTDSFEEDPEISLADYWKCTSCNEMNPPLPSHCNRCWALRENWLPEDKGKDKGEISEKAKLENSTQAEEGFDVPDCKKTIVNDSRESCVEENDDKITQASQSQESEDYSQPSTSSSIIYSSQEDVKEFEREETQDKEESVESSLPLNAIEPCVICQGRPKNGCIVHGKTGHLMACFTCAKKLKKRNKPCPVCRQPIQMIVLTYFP

Compound | IC50 (Cathepsin K; read-out: Cathepsin K IC50) [µM] | Ki (MDM2) [µM] | Inhibition (200 μM, %) (MDM2; 200 µM) [%] | inhibition at 200 µM (MDM2) [%] | further results
C=CCn1c(COc2ccccc2)nnc1SC(C)C(=O)NN=Cc1ccccc1F (stereo not shown) [Compound 8, 2-{[4-allyl-5-(phenoxymethyl)-4H-1,2,4-triazol-3-yl]sulfanyl}-N'-(2-fluorobenzylidene)propanohydrazide] | > 200 | 23.4 | 84.7 | > 80 | IC50 (HCT116 (p53 +/+) cells; [1]): > 100 µM; IC50 (HCT116 (p53 -/-) cells; [1]): > 100 µM; IC50 (MCF7 (p53 +/+) cells; Homo sapiens, MCF7, MTT, 48 h): > 100 µM; IC50 (MCF7 (p53 -/-) cells; MCF7, MTT, 48 h): > 100 µM
O=C(O)CC1c2ccccc2CCN1S(=O)(=O)c1ccccc1 (stereo not shown) [Compound 15, [2-(phenylsulfonyl)-1,2,3,4-tetrahydroisoquinolin-1-yl]acetic acid] | > 200 | 23.1 | 82.1 | > 80 | IC50 (HCT116 (p53 +/+) cells; [1]): 28.1 ± 2.53 µM; IC50 (HCT116 (p53 -/-) cells; [1]): 51.7 ± 4.15 µM; IC50 (MCF7 (p53 +/+) cells; Homo sapiens, MCF7, MTT, 48 h): > 100 µM; IC50 (MCF7 (p53 -/-) cells; MCF7, MTT, 48 h): > 100 µM
CC(C)N(C(=O)Cn1c(COc2ccc3ccccc3c2)nc2ccccc21)c1ccccc1 [Compound 4, N-isopropyl-2-{2-[(2-naphthyloxy)methyl]-1H-benzimidazol-1-yl}-N-phenylacetamide] | > 200 | 99.5 |  | 76.3 | 
CCc1nnc(NC(=O)CSc2nnc(COc3ccccc3)n2-c2ccc(C)cc2)s1 [Compound 7, N-(5-ethyl-1,3,4-thiadiazol-2-yl)-2-{[4-(4-methylphenyl)-5-(phenoxymethyl)-4H-1,2,4-triazol-3-yl]sulfanyl}acetamide] | > 200 | 98.3 |  | 63.7 | 
COC(=O)C1C(CBr)N1N1C(=O)c2ccccc2C1=O (stereo not shown) [Compound 13, Methyl 3-(bromomethyl)-1-(1,3-dioxo-1,3-dihydro-2H-isoindol-2-yl)-2-aziridinecarboxylate] |  | > 200 | 42.9 | < 50 | IC50 (Cathepsin K): > 200 µM
COc1ccc(OCc2nnc3sc(COc4ccccc4Cl)nn23)cc1 [Compound 11, 6-[(2-chlorophenoxy)methyl]-3-[(4-methoxyphenoxy)methyl][1,2,4]triazolo[3,4-b][1,3,4]thiadiazole] | > 200 | > 200 | 32.3 | < 50 | 
CC(C)(F)C[C@H](N[C@@H](c1ccc(-c2ccc(S(C)(=O)=O)cc2)cc1)C(F)(F)F)C(=O)NC1(C#N)CC1 [Odancatib, reference compound] | 0.001 |  |  |  | 
Cc1nn(-c2ccccc2)c(O)c1/N=N/c1cccc2ncccc12 [Compound 16, 3-Methyl-1-phenyl-4-(quinolin-5-yldiazenyl)-1H-pyrazol-5-ol] | > 200 |  |  | 72.4 | Ki (MDM2; fluorescence polarization, eight concentrations 0.091–200 μM): 64.6 µM
C=CCn1c(SCC(=O)N2N=C(c3ccco3)CC2c2ccco2)nnc1-c1ccncc1 (stereo not shown) [Compound 2, 4-allyl-5-(4-pyridinyl)-4H-1,2,4-triazol-3-yl 2-[3,5-di(2-furyl)-4,5-dihydro-1H-pyrazol-1-yl]-2-oxoethyl sulfide] | > 200 | 9.5 | 95.8 | > 80 | IC50 (HCT116 (p53 +/+) cells; [1]): 35.5 ± 1.48 µM; IC50 (HCT116 (p53 -/-) cells; [1]): 58.2 ± 4.57 µM; IC50 (MCF7 (p53 +/+) cells; Homo sapiens, MCF7, MTT, 48 h): > 100 µM; IC50 (MCF7 (p53 -/-) cells; MCF7, MTT, 48 h): > 100 µM
COc1cccc(OCC(=O)N(Cc2nc(-c3ccccc3)no2)C2CCCCC2)c1 [Compound 10, N-cyclohexyl-2-(3-methoxyphenoxy)-N-[(3-phenyl-1,2,4-oxadiazol-5-yl)methyl]acetamide] | > 200 | 3.2 | 96.5 | > 80 | IC50 (HCT116 (p53 +/+) cells; Homo sapiens, HCT-116, 48 h): 12.6 ± 2.32 µM; IC50 (HCT116 (p53 -/-) cells; Homo sapiens, HCT-116, 48 h): 24.1 ± 2.31 µM; IC50 (MCF7 (p53 +/+) cells; Homo sapiens, MCF7, 48 h): 19.4 ± 2.26 µM; fold less potent in MDM2 binding affinity than nutlin-3a (MDM2; versus nutlin-3a): approximately 20 fold; IC50 (MCF7 (p53 -/-) cells; MCF7, MTT, 48 h): 26.7 ± 1.65 µM
CCOC(=O)/C=C1\NC(C)(C)Cc2cc(OC)c(OC)cc21 [Compound 6, Ethyl (6,7-dimethoxy-3,3-dimethyl-3,4-dihydro-1(2H)-isoquinolinylidene)acetate] | > 200 | > 200 | 46.6 | < 50 | 
[N-]=[N+]=CC(=O)C(O)(c1ccccc1)C(Cl)c1ccccc1 (stereo not shown) [Compound 12, 4-chloro-1-diazo-3-hydroxy-3,4-diphenyl-2-butanone] | > 200 | > 200 | 18.8 |  | Inhibition (200 μM, %) (MDM2; listed as AB-131/42300827, 200 µM): < 50%
CC(C)(C)C[C@H]1N[C@@H](C(N)=O)[C@H](c2cccc(Cl)c2F)C12C(=O)Nc1cc(Cl)ccc12 (stereo partly shown) [TS-5] |  |  |  |  | Ki (human MDM2; read-out: Potency human MDM2 (nM), Ki): 3 nM
CCOC(=O)c1nnn(-c2nonc2N)c1CNc1ccccc1 [Compound 14, Ethyl 1-(4-amino-1,2,5-oxadiazol-3-yl)-5-(anilinomethyl)-1H-1,2,3-triazole-4-carboxylate] | > 200 | 127 |  | 68.6 | 
O=c1nc(SCc2nc3ccccc3n2Cc2ccccc2)[nH]c2ccccc12 [Compound 3, 2-{[(1-benzyl-1H-benzimidazol-2-yl)methyl]sulfanyl}-4(1H)-quinazolinone] | > 200 | 104 |  | 62.4 | 
CCOC(=O)c1c(-c2ccccc2)oc2ccc(O)c(CN(C)C)c12 [Compound 17, Ethyl 4-[(dimethylamino)methyl]-5-hydroxy-2-phenyl-1-benzofuran-3-carboxylate] | > 200 | > 200 | 47.3 | < 50 | 
CCOc1cc(C(C)(C)C)ccc1C1=NC(C)(c2ccc(Cl)cc2)C(C)(c2ccc(Cl)cc2)N1C(=O)N1CCN(CCCS(C)(=O)=O)CC1 (stereo not shown) [TS-2] |  |  |  |  | IC50 (human MDM2): 18 nM
O=C(c1cc2n(n1)C(C(F)(F)F)CC(c1ccc(Br)cc1)N2)N(Cc1ccccc1)c1ccccc1 (stereo not shown) [Compound 9, N-benzyl-5-(4-bromophenyl)-N-phenyl-7-(trifluoromethyl)-4,5,6,7-tetrahydropyrazolo[1,5-a]pyrimidine-2-carboxamide] | > 200 | > 200 | 37.6 | < 50 | 
COc1ccc(C2=N[C@@H](c3ccc(Cl)cc3)[C@@H](c3ccc(Cl)cc3)N2C(=O)N2CCNC(=O)C2)c(OC(C)C)c1 [Nutlin-3a, reference compound] |  |  |  |  | IC50 (HCT116 (p53 +/+) cells; MTT, 48 h): 18.1 ± 2.17 µM; IC50 (HCT116 (p53 -/-) cells; MTT, 48 h): 40.7 ± 1.47 µM; IC50 (MCF7 (p53 +/+) cells; MTT, 48 h): 32.2 ± 1.49 µM
O=S(=O)(Nc1nc2ccccc2nc1Nc1cccc(O)c1)c1ccc(Cl)cc1 [Compound 5, 4-chloro-N-[3-(3-hydroxyanilino)-2-quinoxalinyl]benzenesulfonamide] | > 200 | 8.5 | 90.31 | > 80 | IC50 (HCT116 (p53 +/+) cells; Homo sapiens, HCT-116, 48 h): 17.4 ± 1.8 µM; IC50 (HCT116 (p53 -/-) cells; Homo sapiens, HCT-116, 48 h): 40.8 ± 3.54 µM; IC50 (MCF7 (p53 +/+) cells; Homo sapiens, MCF7, 48 h): 40.2 ± 1.77 µM; IC50 (MCF7 (p53 -/-) cells; MCF7, 48 h): 56.4 ± 4.12 µM
O=C(NCCN1CCOCC1)c1[nH]c2cc(Cl)ccc2c1-c1c(-c2ccccc2)ncn1Cc1ccc(Cl)cc1 [TS-6] |  |  |  |  | IC50 (human MDM2): 30 nM
CCOC(=O)c1cc(C(C)c2ccccc2)sc1NC(=O)c1cccc(COc2ccccc2Cl)c1 (stereo not shown) [Compound 1, Ethyl 2-({3-[(2-chlorophenoxy)methyl]benzoyl}amino)-5-(1-phenylethyl)-3-thiophenecarboxylate] | > 200 | 43.5 | 80.2 | > 80 | 
